The results in this text go back to BindingDB's records for patent US9365558 (Bristol Myers Squibb, 2016).

The experiment deals with 2-acylglycerol O-acyltransferase 2 (Homo sapiens, UniProt Q3SYC2). As to the kind of experiment: LCMS Assay. To be noted: pH 7.4; 65 °C. How it is done:
The MGAT enzyme reactions were performed in Corning FALCON® 96-well Polypropylene plates, in a total volume of 60 μL of 50 mM Potassium Phosphate buffer pH 7.4, containing a final concentration of 100 μM 2-oleoylglycerol, 15 μM oleoyl-Coenzyme A and 0.0013 μg/μL Human or Mouse MGAT-2 or 0.0026 μg/μL Rat recombinant MGAT-2 membranes expressed in Sf9 cells. Assay plates were run through a fully automated robotics system and shaken for 5 seconds every minute for a total 10 minutes. The reactions were then quenched with 120 μL of ice cold methanol containing 1 μg/mL 1,2-distearoyl-rac-glycerol as the internal standard. Plates were shaken for 2 minutes and spun down to remove protein precipitation. After the spin, samples were transferred to LC/MS compatible PCR plates. For LC/MS analysis, a ThermoFisher Surveyor pump, utilizing a Waters Symmetry C8, 50×2.1 mm column, was used for the chromatography of enzyme products. The buffer system consists of 0.1% formic acid in water with a mobile phase consisting 0.1% formic acid in methanol. The shallow gradient is 90-100% mobile phase in 0.2 min with a total run time of 2.3 min. The first 0.5 minutes of each injection was diverted to waste to eliminate the presence of Phosphate buffer in the enzymatic reaction. The column was run at 0.6 mL/min and a temperature of 65° C.

Chain of 2-acylglycerol O-acyltransferase 2 (Q3SYC2 whole entry): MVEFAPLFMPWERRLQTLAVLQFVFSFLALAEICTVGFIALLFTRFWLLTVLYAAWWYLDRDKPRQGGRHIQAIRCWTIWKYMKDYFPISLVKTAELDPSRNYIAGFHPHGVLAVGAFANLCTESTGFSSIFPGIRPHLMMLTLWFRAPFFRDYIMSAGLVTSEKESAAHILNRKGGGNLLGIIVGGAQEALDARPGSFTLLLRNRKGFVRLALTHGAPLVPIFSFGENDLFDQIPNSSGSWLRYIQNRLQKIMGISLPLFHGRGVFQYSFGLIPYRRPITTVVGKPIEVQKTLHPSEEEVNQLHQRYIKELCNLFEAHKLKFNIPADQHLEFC

A word on the IC50: it is the concentration needed to halve the response being measured. As for `Cc1ccc(C2=C(C(=O)NS(=O)(=O)N(C)C)C(=O)N[C@@](c3ccc(OCCCC(F)(F)F)cc3)(C(F)(F)F)C2)cc1` [US9365558, 31], 0.038 µM corresponded to half-maximal inhibition (IC50).

`CC(C)(C)n1ccc(C2=C(C(=O)NS(=O)(=O)C3CC3)C(=O)N[C@@](c3ccc(OCCCCCC(F)(F)F)cc3)(C(F)(F)F)C2)n1` [US9365558, 80] showed an IC50 of 0.04 µM.
